Data published in US7935687B2, “Methods for treating spinal muscular atrophy using tetracycline compounds” (Paratek Pharmaceuticals, Inc., priority 2007, dated 2011).

Columns and labels:
[1] = system: SMN2 mRNA; experiment: In vitro cell-free splicing assay for inclusion of exon 7; type: biochemical; details: HeLa cell nuclear extract, 30° C., 3 hours
Method: The following example illustrates how tetracycline compound of the invention are active in an in vitro cell-free assay for the inclusion of exon 7 in […] mRNA. SMN1 and SMN2 pre-mRNA were prepared by in vitro transcription using T7 RNA polymerase of minigene templates that include exon 6, a truncated portion of intron 6, exon 7, intron 7 and a portion of exon 8 in the presence of ^32P-UTP. Labeled RNA was purified on a denaturing polyacrylamide gel followed by phenol extraction and ethanol precipitation of the RNA.
In vitro cell-free splicing of SMN1 and SMN2 transcripts was carried out in a 10 μl reaction volume at 30° C. for 3 hours. The reactions contained 10 fmol of labeled pre-mRNA, 30% (3 VI) HeLa cell nuclear extract (in 20 mM HEPES, pH 7.4, 20% (v/v) glycerol, 0.1M KC1, 0.2 mM EDTA), 1.3% (w/v) polyvinyl alcohol, 1.56 mM MgCl2, 32 mM HEPES, pH 7.4, 0.5 mM ATP, 20 mM creatine phosphate and either 2 μl of test compound (in 20 mM HEPES, pH 7.4, 0.1M KC1, 0.2 mM EDTA) or buffer alone. Following incubation, 200 μl of a solution containing 0.3M NaAc and 0.2% SDS was added to the reaction. Proteins were removed by extraction with an equal volume of phenol and RNA was precipitated with 2.5 volumes of ethanol. RNA was resuspended in formamide sample buffer and separated on a 9% urea-denaturing polyacrylamide gel. Quantitation of splicing was based on phosphorimage analysis (Fujix BAS2000 or Fujifilm FLA-5100). In this assay, percentage exon 7 inclusion averages 12% for the unmutated SMN1 mRNA and 4% for the SMN2 mRNA.
The in vitro activities for exon 7 splicing are expressed as the Emax (the maximum percentage exon 7 inclusion observed) and Cmax (the lowest compound concentration at which the maximum inclusion occurs in μM). For Emax, percentage inclusion values of less than 10% are indicated by “*”, values of 10-20% are indicated by “**”, and values greater than 20% are indicated by “***”. For Cmax data, concentrations of greater than 40 μM are indicated by “*”, concentrations between 40 and 10 μM are represented by “**” and concentrations of less than 10 μM are represented by “***”.

[2] = system: S. aureus (SA RN450); experiment: Antibacterial MIC, gram positive; type: cell-based; details: CLSI methodology, 35° C., 18-24 hours
[3] = system: E. coli (EC D1-209); experiment: Antibacterial MIC, gram negative; type: cell-based; details: CLSI methodology, 35° C., 18-24 hours

Row | Structure (SMILES) | Cmax (lowest compound concentration at which the maximum exon 7 inclusion occurs) [1] | Emax (maximum percentage exon 7 inclusion observed) [1] | MIC Gram Positive (SA RN450) [2] | MIC Gram Negative (EC D1-209) [3] | MIC ([2]; Staphylococcus aureus) [µg/mL] | MIC ([3]; Escherichia coli) [µg/mL]
1 | COc1ccc(CNCc2ccc(-c3ccc(O)c4c3CC3CC5C(N(C)C)C(O)=C(C(N)=O)C(=O)C5(O)C(O)=C3C4=O)cc2)cc1 (stereo not drawn) [AW] | *** (concentrations of less than 10 μM) | ** (values of 10-20%) | *** (Good antibacterial activity (e.g., less than about 4 μg/mL)) | *** (Good antibacterial activity (e.g., less than about 4 μg/mL)) | – | –
2 | CN(C)C1C(O)=C(C(N)=O)C(=O)C2(O)C(O)=C3C(=O)c4c(O)ccc(-c5ccc(CN6CCOCC6)o5)c4CC3CC12 (stereo not drawn) [AX] | *** (concentrations of less than 10 μM) | ** (values of 10-20%) | *** (Good antibacterial activity (e.g., less than about 4 μg/mL)) | ** (modest antibacterial activity (between about 4 and 8 μg/mL)) | – | –
3 | CCN(CC)CCNC(=O)c1cccc(-c2ccc(O)c3c2CC2CC4C(N(C)C)C(O)=C(C(N)=O)C(=O)C4(O)C(O)=C2C3=O)c1 (stereo not drawn) [O] | ** (concentrations between 40 and 10 μM) | * (percentage inclusion values of less than 10%) | ** (modest antibacterial activity (between about 4 and 8 μg/mL)) | * (weak antibacterial activity (greater than about 8 μg/mL)) | – | –
4 | CN(C)CCCNC(=O)c1cccc(-c2ccc(O)c3c2CC2CC4C(N(C)C)C(O)=C(C(N)=O)C(=O)C4(O)C(O)=C2C3=O)c1 (stereo not drawn) [P] | ** (concentrations between 40 and 10 μM) | ** (values of 10-20%) | ** (modest antibacterial activity (between about 4 and 8 μg/mL)) | * (weak antibacterial activity (greater than about 8 μg/mL)) | – | –
5 | CC(=O)N1CCN(CC(=O)c2ccc(O)c3c2CC2CC4C(N(C)C)C(O)=C(C(N)=O)C(=O)C4(O)C(O)=C2C3=O)CC1 (stereo not drawn) [BS] | * (concentrations of greater than 40 μM) | ** (values of 10-20%) | *** (Good antibacterial activity (e.g., less than about 4 μg/mL)) | * (weak antibacterial activity (greater than about 8 μg/mL)) | – | –
6 | CN(C)C1C(O)=C(C(N)=O)C(=O)C2(O)C(O)=C3C(=O)c4c(O)ccc(-c5ccc(CNCc6cccnc6)o5)c4CC3CC12 (stereo not drawn) [BI] | *** (concentrations of less than 10 μM) | ** (values of 10-20%) | *** (Good antibacterial activity (e.g., less than about 4 μg/mL)) | *** (Good antibacterial activity (e.g., less than about 4 μg/mL)) | – | –
7 | CN(C)C1C(O)=C(C(N)=O)C(=O)C2(O)C(O)=C3C(=O)c4c(O)ccc(C(=O)CNCc5cccn5C)c4CC3CC12 (stereo not drawn) [CE] | *** (concentrations of less than 10 μM) | ** (values of 10-20%) | *** (Good antibacterial activity (e.g., less than about 4 μg/mL)) | * (weak antibacterial activity (greater than about 8 μg/mL)) | – | –
8 | CN(C)CCNC(=O)c1ccc(O)c2c1CC1CC3C(N(C)C)C(O)=C(C(N)=O)C(=O)C3(O)C(O)=C1C2=O (stereo not drawn) [AH] | ** (concentrations between 40 and 10 μM) | * (percentage inclusion values of less than 10%) | * (weak antibacterial activity (greater than about 8 μg/mL)) | * (weak antibacterial activity (greater than about 8 μg/mL)) | – | –
9 | CN(CCC#N)Cc1cccc(-c2ccc(O)c3c2CC2CC4C(N(C)C)C(O)=C(C(N)=O)C(=O)C4(O)C(O)=C2C3=O)c1 (stereo not drawn) [BL] | * (concentrations of greater than 40 μM) | ** (values of 10-20%) | *** (Good antibacterial activity (e.g., less than about 4 μg/mL)) | * (weak antibacterial activity (greater than about 8 μg/mL)) | – | –
10 | CN(C)CC(=O)Nc1cccc(-c2ccc(O)c3c2C[C@H]2C[C@H]4[C@H](N(C)C)C(O)=C(C(N)=O)C(=O)[C@@]4(O)C(O)=C2C3=O)c1 [Compound K, (4S,4aS,5aR,12aS)-4-Dimethylamino-7-[3-(2-dimethylamino-acetylamino)-phenyl]-3,10,12,12a-tetrahydroxy-1,11-dioxo-1,4,4a,5,5a,6,11,12a-octahydro-naphthacene-2-carboxylic Acid Amide] | * (concentrations of greater than 40 μM) | * (percentage inclusion values of less than 10%) | – | – | < 4 | > 8
11 | COC(=O)C1CCN(Cc2ccc(O)c3c2CC2CC4C(N(C)C)C(O)=C(C(N)=O)C(=O)C4(O)C(O)=C2C3=O)CC1 (stereo not drawn) [Compound AK] | ** (concentrations between 40 and 10 μM) | * (percentage inclusion values of less than 10%) | *** (Good antibacterial activity (e.g., less than about 4 μg/mL)) | ** (modest antibacterial activity (between about 4 and 8 μg/mL)) | – | –
12 | CNCCNC(=O)c1cccc(-c2ccc(O)c3c2CC2CC4C(N(C)C)C(O)=C(C(N)=O)C(=O)C4(O)C(O)=C2C3=O)c1 (stereo not drawn) [M] | ** (concentrations between 40 and 10 μM) | *** (values greater than 20%) | ** (modest antibacterial activity (between about 4 and 8 μg/mL)) | * (weak antibacterial activity (greater than about 8 μg/mL)) | – | –
13 | CC(=O)NCCNC(=O)c1cccc(-c2ccc(O)c3c2CC2CC4C(N(C)C)C(O)=C(C(N)=O)C(=O)C4(O)C(O)=C2C3=O)c1 (stereo not drawn) [S] | * (concentrations of greater than 40 μM) | ** (values of 10-20%) | *** (Good antibacterial activity (e.g., less than about 4 μg/mL)) | * (weak antibacterial activity (greater than about 8 μg/mL)) | – | –
14 | CC(=O)NCCC(=O)c1ccc(O)c2c1CC1CC3C(N(C)C)C(O)=C(C(N)=O)C(=O)C3(O)C(O)=C1C2=O (stereo not drawn) [CI] | * (concentrations of greater than 40 μM) | ** (values of 10-20%) | *** (Good antibacterial activity (e.g., less than about 4 μg/mL)) | * (weak antibacterial activity (greater than about 8 μg/mL)) | – | –
15 | CC(C)N1CCN(CC(=O)c2ccc(O)c3c2CC2CC4C(N(C)C)C(O)=C(C(N)=O)C(=O)C4(O)C(O)=C2C3=O)CC1 (stereo not drawn) [BX] | * (concentrations of greater than 40 μM) | * (percentage inclusion values of less than 10%) | *** (Good antibacterial activity (e.g., less than about 4 μg/mL)) | * (weak antibacterial activity (greater than about 8 μg/mL)) | – | –
